Like-named read-outs stand apart in the source and are kept apart here.

The test system of assay [1] is mitochondrial genome and DHFR gene of IMR-32 cells. In words: Gene-specific Southern hybridisation assay of DNA adducts / virtual crosslinks. It counts as cell-based, human. To be noted: for level of DNA adducts (percentage of double stranded DNA): IMR-32, Adriamycin alone, or Adriamycin with 25-fold excess of AN-9 (added 2 hr after or 2 hr before). On the procedure:
We sought to investigate the level of DNA adducts formed under various treatment conditions, since we speculated that the peculiar effectiveness of the Adriamycin/AN-9 combination might be due to increased levels of DNA damage in the form of DNA adducts. IMR-32 human neuroblastoma cells (A and B) and MCF-7 human breast adenocarcinoma cells (C and D) were treated with Adriamycin for 2 hr ([…] as shown) followed by a further 2 hr incubation with a 25-fold excess of AN-9 (▪), or treated with AN-9 for 2 hr followed by a further 4 hr incubation with Adriamycin (□). Genomic DNA was isolated using mild conditions (Cutts et al., 2001) and subjected to gene-specific Southern hybridisation analysis. For detection of the mitochondrial genome, DNA was restriction digested with BamHI, and unreacted or intercalated drug was removed by phenol/chloroform extraction and ethanol precipitation. Samples were resuspended in 60% formamide and heat denatured at 60° C. for 5 min. Samples were resolved electrophoretically through 0.8% agarose, transferred to nylon membranes and probed with mitochondrial RNA. The percentage of double stranded DNA was calculated by phosphorimage analysis; this correlates with adduct formation in the mitochondrial genome (A and C), since the adducts behave functionally as virtual interstrand crosslinks (Zeman et al., 1998; Cullinane et al., 2000). For detection of the DHFR gene, DNA was digested with HindIII and processed as described above; however, randomly primed DHFR DNA was used as the probe for Southern analysis (B and D). Data were derived from each of two separate blots of two biological experiments, and the values are represented as the mean±SE. […] This provides a biochemical basis for the synergistic/antagonistic cytotoxicity relationship.
It was known that the formation of Adriamycin adducts was highly time-dependent. To confirm that the adducts behave as classical Adriamycin adducts, and also to investigate the optimal conditions for adduct formation, a time course study was initiated. IMR-32 cells were treated with a combination of 4 μM Adriamycin and 100 μM AN-9 for 0-8 hr as described above. Phosphorimage analysis was used to quantitate the time-dependent formation of adducts in the mitochondrial genome (A) and DHFR gene (B).
In order to gain some understanding as to why synergy was greatest when AN-9 was added at the same time as, or after, Adriamycin, a time course of addition of AN-9 was studied. IMR-32 cells were exposed to 4 μM Adriamycin for 4 hr. […] Adduct/crosslinking levels are shown in FIG. 3 for both mitochondrial (A) and nuclear (B) DNA, using probes for mtDNA and the DHFR gene respectively. Phosphorimage analysis was used to quantitate the fraction of DS DNA, a measure of adduct formation, for each treatment condition. Adduct formation fluctuated greatly, and depended on a relatively small time frame within which AN-9 was added to cells. […] This enabled us to predict that if AN-9 was added shortly after Adriamycin in cytotoxicity assays, within say approximately 2 hr, then the Combination Index obtained would be even better than when the drugs were added simultaneously.
IMR-32 cells were exposed to Adriamycin (6 μm) for 4 hr, and AN-9 (125 μM) was added at varying times from 24 hr prior to Adriamycin addition (−24) to 2 hr after Adriamycin. Genomic DNA was extracted from cells and then processed for Southern analysis. Phosphorimage analysis was used for quantitation of the adducts in mtDNA (A) and the DHFR gene (B), and the results are shown in FIG. 4.

Assay [2] has as its system mitochondrial genome and DHFR gene of MCF-7 cells. The assay is described as above. It counts as cell-based, human. As to conditions: Adriamycin alone, or Adriamycin with 25-fold excess of AN-9 (added 2 hr after or 2 hr before). The method, then: We sought to investigate the level of DNA adducts formed under various treatment conditions, since we speculated that the peculiar effectiveness of the Adriamycin/AN-9 combination might be due to increased levels of DNA damage in the form of DNA adducts. IMR-32 human neuroblastoma cells (A and B) and MCF-7 human breast adenocarcinoma cells (C and D) were treated with Adriamycin for 2 hr ([…] as shown) followed by a further 2 hr incubation with a 25-fold excess of AN-9 (▪), or treated with AN-9 for 2 hr followed by a further 4 hr incubation with Adriamycin (□). Genomic DNA was isolated using mild conditions (Cutts et al., 2001) and subjected to gene-specific Southern hybridisation analysis. For detection of the mitochondrial genome, DNA was restriction digested with BamHI, and unreacted or intercalated drug was removed by phenol/chloroform extraction and ethanol precipitation. Samples were resuspended in 60% formamide and heat denatured at 60° C. for 5 min. Samples were resolved electrophoretically through 0.8% agarose, transferred to nylon membranes and probed with mitochondrial RNA. The percentage of double stranded DNA was calculated by phosphorimage analysis; this correlates with adduct formation in the mitochondrial genome (A and C), since the adducts behave functionally as virtual interstrand crosslinks (Zeman et al., 1998; Cullinane et al., 2000). […]

A further assay deals with IMR-32 cells. Kind of assay: Cell viability assay, relative survival with semi-carbazide. Format: cell-based, human. As to conditions: IC50 relative to Adriamycin alone; 72 hr; presence or absence of 50 μM AN-9; no semi-carbazide. On the procedure:
To obtain data representing relative survival, cells were seeded at a density of 1×10^4 per well and exposed to increasing concentrations of Adriamycin in the presence or absence of 50 μM AN-9 and/or semi-carbazide (0.25, 0.5 or 1.0 mM as indicated) for 72 hr. IC50 values for various combinations are shown as relative survival compared to Adriamycin alone. […] Overall, the critical role of formaldehyde was confirmed by reversal of formaldehyde-mediated effects by semi-carbazide, which reduced adduct formation and also abolished the cytotoxicity resulting from the interaction of AN-9 with Adriamycin.

Assay [3] has as its system genomic DNA of IMR-32 cells. As to conditions: for adduct levels compared to Adriamycin alone / relative effectiveness in activating adduct formation: 4 μM [14C] Adriamycin simultaneously with 100 μM aldehyde-releasing compound.
Procedure: IMR-32 cells were seeded into 3.5 cm petri dishes at a density of 7.5×10^5 cells/dish 24 hr prior to exposure to 41M [^14C]-Adriamycin for 4 hr. In other treatments 100 μM AN-9 was added at varying times: 2 hr prior to Adriamycin addition (−2); simultaneously (O); and 2 hr after Adriamycin (2). Cells were harvested, and the genomic DNA was isolated. Samples were then extracted twice with phenol and once with chloroform, and DNA was selectively precipitated from RNA by ammonium acetate precipitation. DNA pellets were resuspended in 100 μL TE buffer, and the concentration determined spectrophotometically at 260 nm. Aliquots of the genomic DNA (50 μL) were each added to 1 mL of Optiphase Hisafe scintillation cocktail, and the incorporation of [^14C]-labelled drug into the DNA was monitored using a Wallac 1410 Liquid Scintillation Counter.
IMR-32 cells were exposed to 6 μM [^14C]-Adriamycin alone (Adr) for 4 hr, or together with 125 μl AN-9 at varying times: 16 hr prior (−16), 2 hr prior (−2), simultaneously (0), and 2 hr after Adriamycin addition (2). […] Genomic DNA was extracted from the cells, and incorporation of radiolabelled drug was determined by scintillation counting to determine the level of [^14C] adducts per 10 kb.
Therefore, IMR-32 cells were treated with 4 μM [^14C] Adriamycin and were simultaneously treated with 100 μM of selected aldehyde-releasing compound. Cells were harvested, genomic DNA was extracted and scintillation analyses were performed as described above.
To test whether a greater fraction of Adriamycin can be utilized for adduct formation when the amount of available formaldehyde is increased, the concentration dependence of AN-9 was investigated. IMR-32 cells were treated with [^14C] Adriamycin at a constant concentration of 4 μM. AN-9 was added 2 hr after Adriamycin at concentrations ranging from 4 μM (1:1) to 500 μM (1:125), and the treatment continued for a further 2 hr. Cells were harvested, DNA was extracted and samples were analysed for incorporation of [^14C].
Adducts (lesions/10 kb) were determined by incubating IMR-32 cells in the presence of 2 μM [^14C]Adriamycin for 2 hr. followed by an additional 2 hr in the presence or absence of 100 μM AN-9. Semi-carbazide addition was at the same time as Adriamycin (ie 2 hr before AN-9). However, values in parentheses indicate that semi-carbazide addition was at the same time as AN-9 treatment (ie 2 hr after Adriamycin).
Adriamycin for 4 hr. These were simultaneously incubated with the indicated aldehyde-releasing compound at a final concentration of 100 μM. Samples were harvested as indicated previously and DNA was assessed for incorporation of radioactively labelled Adriamycin.
Another assay deals with DNA. To be noted: cited from earlier work.
The subject of the next assay is HL-60 cells. As to conditions: cited from earlier work.
[4] abbreviates: 4 μM [14C] Adriamycin, 500 μM AN-9 (1:125) added 2 hr after.
Setting [5] is: 6 μM [14C]-Adriamycin 4 hr, AN-9 16 hr prior to Adriamycin.

`COc1cccc2c1C(=O)c1c(O)c3c(c(O)c1C2=O)C[C@@](O)(C(=O)CO)C[C@@H]3O[C@H]1C[C@H](N)[C@H](O)[C@H](C)O1` [Adriamycin, reference compound]: the “level of DNA adducts (percentage of double stranded DNA)” value in assay [1] and in assay [2] was “no adducts were detected” in each case. The Relative survival in the assay with IMR-32 cells came to 1.00 ± 0.12. Also, in assay [3] (6 μM [14C]-Adriamycin alone 4 hr), the “levels of Adriamycin adducts” value is 2.8 /10 kb. In addition, in assay [3] (41M [14C]-Adriamycin 4 hr, absence of AN-9), the “level of Adriamycin adducts” value is listed as “approximately 1.5 per 10 kb”. Also, the “half-life of Adriamycin adducts” value in the assay with DNA is 5 to 40 h.
Regarding `CCCC(=O)OCOC(=O)C(C)(C)C` [AN-9, Pivaloyloxymethyl Butyrate], the adduct/crosslinking levels entry in assay [1] (4 μM Adriamycin 4 hr, 100 μM AN-9 added shortly after Adriamycin, compared with simultaneous addition) is “greatly enhanced levels of adducts”. Moreover, in assay [1] (Adriamycin (6 μm) 4 hr, AN-9 (125 μM) administered 5-24 hr prior to Adriamycin), the “enhancement of adduct levels” value was “no enhancement of adduct levels”. For the same molecule, the “level of DNA adducts (percentage of double stranded DNA)” value in assay [1] is on record as “dramatic increases in the level of DNA adducts”. The “effect on the ability of barminomycin to induce DNA crosslinks” value in assay [1] (barminomycin 0-20 nM, 12,500-fold excess of AN-9, added after or 2 hr before barminomycin) is “no effect”. Besides, in assay [2], the “level of DNA adducts (percentage of double stranded DNA)” value was “dramatic increases in the level of DNA adducts”. Also, in assay [3], the “adduct levels compared to Adriamycin alone” value is “enhanced adduct levels” and the “relative effectiveness in activating adduct formation” value is listed as “most effective”. Also, the “total Adriamycin added to cells incorporated into DNA adducts” value in assay [3] (4 μM [14C] Adriamycin, 500 μM AN-9) is “approximately 5%”. Besides, in assay [3] (setting [4]), the “adduct levels relative to the 1:20-1:25 ratio” value is reported as “approximately 10 fold” and the “potentiation of Adriamycin adduct levels” value is reported as “approximately 100 fold”. The Adriamycin adducts in assay [3] (4 μM [14C] Adriamycin, AN-9 added 2 hr after, further 2 hr, Adriamycin:AN-9 1:20-1:25) is listed as 10 adducts per 10 kb. In assay [3] (4 μM [14C] Adriamycin, AN-9 added 2 hr after, Adriamycin:AN9 1:1-1:5), the “enhancement of adduct formation” value is given as “poor”. In addition, in assay [3] (setting [5]), the “levels of Adriamycin adducts” value is recorded as 1.7 /10 kb and the “loss of adducts compared to Adriamycin alone” value is 40%. In addition, the “enhancement of adducts compared to Adriamycin alone” value in assay [3] (6 μM [14C]-Adriamycin 4 hr, AN-9 added 2 hr after Adriamycin) is listed as “approximately 20 fold”. In addition, the “level of Adriamycin adducts” value in assay [3] (41M [14C]-Adriamycin 4 hr, 100 μM AN-9 2 hr after Adriamycin) was approximately 24 per 10 kb. Also, the “level of Adriamycin adducts” value in assay [3] (41M [14C]-Adriamycin 4 hr, 100 μM AN-9 2 hr prior to Adriamycin) is approximately 3.5 per 10 kb. For the same molecule, the “potentiation of the level of Adriamycin adducts” value in assay [3] (41M [14C]-Adriamycin 4 hr, 100 μM AN-9, vs Adriamycin alone) is “up to 15 fold”. In assay [3] (41M [14C]-Adriamycin 4 hr, 100 μM AN-9 simultaneously), the “level of Adriamycin adducts” value is given as “approximately 12 per 10 kb”. Moreover, in the assay on HL-60 cells, the histone acetylation entry was “induce histone acetylation” and the “time after exposure at which basal level of acetylation is re-established” value was 6 h.
As for `CCCC(=O)OCOP(=O)(OCC)OCC` [AN-7, Butyroyloxymethyldiethyl Phosphate], in assay [3], the “adduct levels compared to Adriamycin alone” value is given as “enhanced adduct levels” and the “relative effectiveness in activating adduct formation” value is on record as “good activity”.
For the molecule `C1N2CN3CN1CN(C2)C3` [hexamethylenetetramine, reference compound], the “facilitation of Adriamycin adduct formation” value in assay [1] (15 μM Adriamycin, 4 hr later 0-2.5 mM hexamethylenetetramine, harvested after 8 hr) is on record as “not as effective as AN-9”.
Take `CCCC(=O)O` [Butyric acid, reference compound]: the “increase in Adriamycin adduct levels” value in assay [3] (6 μM [14C]-Adriamycin 4 hr, sodium butyrate (1 mM) 16 hr prior, 2 hr prior, simultaneously or 2 hr after) is “no significant increases in adduct levels”.
For `CCCC(=O)OC(C)OP(=O)(OCC)OCC` (stereo not drawn) [AN-88, 1-Butyroyloxyethyldiethyl Phosphate], the “adduct levels compared to Adriamycin alone” value in assay [3] is listed as “reinforced the concept that it was the released formaldehyde which was solely responsible for increased adduct formation”.
With `CCC(=O)OC(C)OC(=O)CC` [AN-188, Ethylidene Dipropionate], the “adduct levels compared to Adriamycin alone” value in assay [3] was “reinforced the concept that it was the released formaldehyde which was solely responsible for increased adduct formation”.

These data come from patent US20040110727A1, “Aldehyde-releasing compounds” (priority 2000, published 2004).
